ChEMBL document CHEMBL3727367, “Hydrazide compounds” (2007)
pKi: −log10 of the molar value. Values belong to the molecule of their own block, whether it stands above or below them. Activity calls are given as the source filed them. The calls are words filed in the database; no cut-off is given here.

How the values were obtained:
Felis catus [1] = test: Antiglaucoma activity in cat assessed as decrease of allergic symptoms administered topically twice per day on eye; assay type: functional, organism-based
Felis catus [2] = test: Antiglaucoma activity in cat assessed as decrease of dry eye syndrome administered topically twice per day on eye; assay type: functional, organism-based
[3] = target: T1, Protein-serine/threonine kinase (Sus scrofa) (UniProt F1RUX3); test: Inhibition of GRK2 in porcine trabecular meshwork cells assessed as F-actin depolymerization at 50 uM after 20 mins by Alexa-fluor 488-labelled phalloidin/DAPI staining assay relative to control
T1 sequence (whole entry): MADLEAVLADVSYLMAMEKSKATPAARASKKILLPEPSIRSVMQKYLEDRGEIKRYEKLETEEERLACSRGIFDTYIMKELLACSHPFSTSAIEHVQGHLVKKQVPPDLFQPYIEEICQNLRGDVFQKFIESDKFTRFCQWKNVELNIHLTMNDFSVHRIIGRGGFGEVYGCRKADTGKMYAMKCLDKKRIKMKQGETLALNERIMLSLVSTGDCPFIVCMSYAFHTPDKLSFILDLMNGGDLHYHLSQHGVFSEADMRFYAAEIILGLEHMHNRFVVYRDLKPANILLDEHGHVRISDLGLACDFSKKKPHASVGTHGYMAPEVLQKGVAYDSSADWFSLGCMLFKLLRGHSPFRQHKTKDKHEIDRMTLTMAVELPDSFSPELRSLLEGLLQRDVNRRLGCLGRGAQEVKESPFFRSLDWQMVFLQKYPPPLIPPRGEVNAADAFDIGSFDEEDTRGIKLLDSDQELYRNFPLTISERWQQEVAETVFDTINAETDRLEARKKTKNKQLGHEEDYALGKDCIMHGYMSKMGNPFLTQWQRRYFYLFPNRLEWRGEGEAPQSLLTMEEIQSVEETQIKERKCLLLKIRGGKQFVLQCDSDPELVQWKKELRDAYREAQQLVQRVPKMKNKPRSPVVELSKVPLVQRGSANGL

Felis catus [4] = test: Antiglaucoma activity in cat assessed as decrease in intraocular pressure administered topically twice per day on eye measured after 1 to 23 hrs by pneumatonometer; assay type: functional, organism-based
[5] = target: T2, Beta-adrenergic receptor kinase 1 (Homo sapiens, UniProt P25098); test: Inhibition of human GRK2 after 90 to 120 mins by Kinase-Glo assay
T2 sequence (P25098 whole entry): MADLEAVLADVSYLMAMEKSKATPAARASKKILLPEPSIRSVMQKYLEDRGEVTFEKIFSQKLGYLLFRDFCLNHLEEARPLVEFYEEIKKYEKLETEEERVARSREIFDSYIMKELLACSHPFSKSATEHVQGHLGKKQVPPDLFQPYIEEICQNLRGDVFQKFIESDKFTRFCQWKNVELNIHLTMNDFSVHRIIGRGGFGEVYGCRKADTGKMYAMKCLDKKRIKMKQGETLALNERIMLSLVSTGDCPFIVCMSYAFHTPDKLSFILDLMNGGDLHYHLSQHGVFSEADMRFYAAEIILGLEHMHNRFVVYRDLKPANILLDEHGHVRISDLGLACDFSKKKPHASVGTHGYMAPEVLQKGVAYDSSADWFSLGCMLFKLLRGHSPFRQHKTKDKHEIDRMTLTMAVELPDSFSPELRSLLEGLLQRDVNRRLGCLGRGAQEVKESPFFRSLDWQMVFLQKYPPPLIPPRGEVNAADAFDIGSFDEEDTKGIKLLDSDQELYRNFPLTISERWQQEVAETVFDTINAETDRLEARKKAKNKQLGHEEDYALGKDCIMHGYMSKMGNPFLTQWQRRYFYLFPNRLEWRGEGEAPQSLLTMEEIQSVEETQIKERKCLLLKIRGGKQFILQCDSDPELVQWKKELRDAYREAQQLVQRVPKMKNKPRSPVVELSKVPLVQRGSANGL

Felis catus [6] = test: Antiglaucoma activity in cat assessed as decrease in intraocular pressure administered topically 4 times per day on eye measured after 1 to 23 hrs by pneumatonometer; assay type: functional, organism-based
[7] = target: G protein-coupled receptor kinase 6 (Homo sapiens, UniProt P43250); test: Inhibition of GRK6 (unknown origin) after 90 to 120 mins by Kinase-Glo assay
Felis catus [8] = test: Antiglaucoma activity in cat assessed as decrease of ocular irritation administered topically; assay type: functional, organism-based; settings: Eye
Felis catus [9] = test: Antiglaucoma activity in cat assessed as decrease of hyperemia administered topically; assay type: functional, organism-based
Felis catus [10] = test: Antiglaucoma activity in cat assessed as decrease of redness administered topically; assay type: functional, organism-based
[11] = target: T3, Beta-adrenergic receptor kinase 1 (Homo sapiens) (UniProt P25098); test: Inhibition of GRK2 in HEK293 cells overexpressing beta 2 adrenergic receptor assessed as increase in c-AMP accumulation in presence of isoproterenol; assay type: cell-based
T3 sequence (whole entry): T2 sequence (P25098 whole entry)

[12] = target: G protein-coupled receptor kinase 5 (Homo sapiens, UniProt P34947); test: Inhibition of GRK5 (unknown origin) after 90 to 120 mins by Kinase-Glo assay
G protein-coupled receptor kinase 5, sequence (P34947 whole entry): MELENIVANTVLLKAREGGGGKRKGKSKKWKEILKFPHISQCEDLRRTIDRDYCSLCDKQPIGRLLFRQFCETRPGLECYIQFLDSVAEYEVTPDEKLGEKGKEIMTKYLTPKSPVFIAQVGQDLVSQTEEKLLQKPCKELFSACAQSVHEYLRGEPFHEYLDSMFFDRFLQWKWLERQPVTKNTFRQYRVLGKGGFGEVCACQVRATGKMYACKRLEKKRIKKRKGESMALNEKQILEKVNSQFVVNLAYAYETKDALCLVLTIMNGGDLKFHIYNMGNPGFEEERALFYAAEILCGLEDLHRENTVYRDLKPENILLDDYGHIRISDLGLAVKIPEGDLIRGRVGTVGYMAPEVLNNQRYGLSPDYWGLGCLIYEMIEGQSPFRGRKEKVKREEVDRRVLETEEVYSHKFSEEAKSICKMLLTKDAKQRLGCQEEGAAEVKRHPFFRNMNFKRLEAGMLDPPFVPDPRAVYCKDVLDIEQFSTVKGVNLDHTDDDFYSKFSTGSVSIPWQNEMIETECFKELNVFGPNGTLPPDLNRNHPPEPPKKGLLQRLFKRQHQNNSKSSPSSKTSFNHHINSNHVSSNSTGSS

G protein-coupled receptor kinase 6, sequence (P43250 whole entry): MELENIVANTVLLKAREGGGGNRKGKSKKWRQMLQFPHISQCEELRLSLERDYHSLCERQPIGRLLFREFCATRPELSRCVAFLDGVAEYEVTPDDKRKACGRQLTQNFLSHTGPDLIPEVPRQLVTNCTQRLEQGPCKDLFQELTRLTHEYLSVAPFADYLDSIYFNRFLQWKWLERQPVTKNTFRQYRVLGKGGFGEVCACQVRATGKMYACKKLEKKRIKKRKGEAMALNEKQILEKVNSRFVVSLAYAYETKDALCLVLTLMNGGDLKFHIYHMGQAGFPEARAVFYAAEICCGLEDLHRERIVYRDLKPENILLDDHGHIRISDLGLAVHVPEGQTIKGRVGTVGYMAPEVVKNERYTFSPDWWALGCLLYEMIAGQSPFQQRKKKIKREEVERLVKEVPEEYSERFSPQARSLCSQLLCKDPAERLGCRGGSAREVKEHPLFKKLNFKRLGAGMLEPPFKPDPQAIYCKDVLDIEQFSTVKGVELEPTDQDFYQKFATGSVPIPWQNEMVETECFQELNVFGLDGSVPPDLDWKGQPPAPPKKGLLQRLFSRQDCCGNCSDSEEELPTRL

Compound: Cc1ccc(Oc2cccc(NCC(=O)N/N=C/c3ccncc3)c2)cc1
Activity (Felis catus [1]): Active | Activity (Felis catus [2]): Active

Compound: COc1cc(/C=N/NC(=O)CNc2cccc(Cl)c2)nc(OC)n1
GRK2 inhibition activity call (active/not active) [3]: inactive

Compound: O=C(CNc1cccc(C(=O)NCCN2CCOCC2)c1)N/N=C/c1c(Cl)cncc1Cl
GRK2 inhibition activity call (active/not active) [3]: inactive

Compound: NC(=O)c1ccc(NCC(=O)N/N=C/c2c(Cl)cncc2Cl)cc1
Activity (Felis catus [4]): Active

Compound: CCc1cccc(NCC(=O)N/N=C/c2c(Cl)cncc2Cl)c1
pKi [5]: < 5.00

Compound: O=C(CNc1cccc(C(=O)NCCN2CCOCC2)c1)N/N=C/c1ccncc1
Activity (Felis catus [6]): Active

Second part, led by results:

GRK2 inhibition activity call (active/not active) [3]: Active
Compound: O=C(CNc1cccc(C(=O)Nc2cccnc2)c1)N/N=C/c1ccncc1

GRK2 inhibition activity call (active/not active) [3]: inactive
Compound: O=C(CNc1ccc(Oc2ccccc2)cc1)N/N=C/c1c(Cl)cncc1Cl

GRK2 inhibition activity call (active/not active) [3]: inactive
Compound: C/C(=N\NC(=O)CNc1cccc(C(=O)Nc2ccccc2)c1)c1ccncc1

pKi [7]: < 5.00
Compound: O=C(CNc1cccc(OCc2ccccc2)c1)N/N=C/c1ccncc1

GRK2 inhibition activity call (active/not active) [3]: Active | pKi [7]: < 5.00
Compound: O=C(CNc1cccc(C(=O)Nc2ccccc2)c1)N/N=C/c1c(Cl)cncc1Cl

inhibition [11]: Active
Compound: NC(=O)c1cccc(NCC(=O)N/N=C/c2ccncc2)c1
Activity (Felis catus [8]): Active | Activity (Felis catus [9]): Active | Activity (Felis catus [10]): Active

GRK2 inhibition activity call (active/not active) [3]: inactive
Compound: COc1ccc(Oc2cccc(NCC(=O)NN=Cc3ccncc3)c2)cc1 (mixture of isomers)

GRK2 inhibition activity call (active/not active) [3]: inactive
Compound: CNC(=O)c1cccc(NCC(=O)N/N=C/c2c(Cl)cncc2Cl)c1

pKi [12]: < 5.00 | GRK2 inhibition activity call (active/not active) [3]: Active
Compound: O=C(CNc1cccc(C(=O)Nc2ccccc2)c1)N/N=C/c1ccncc1
